One data set is described as follows: in vitro. As to conditions: human, uninfected MT-4 cells, CC50 (nM), same protocol as Test A, CellTiter-Glo. The procedure, abridged: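 Cytoprotection read-out: CellTiter-Glo chemiluminescence after 5 days at 37 °C of HIV-IIIb-infected MT-4 cells (m.o.i. 0.003) with compound in 10-point 3-fold dilutions, quadruplicate, 10% FBS. Cytotoxicity (CC50) measured identically without virus.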
(In general: In ATP-based viability assays light output follows the ATP content of the culture.)

The test system of a further data set is HIV-IIIb. Description: Test A: Antiviral assay in MT4 cells. The following applies: Human immunodeficiency virus 1, IIIB, MT4, 120 h, read-out: % inhibition at 2 μM, percent inhibition of virus-induced cell killing, from dose response curve at 2 uM drug; MT-4 cells infected with HIV-IIIb, 5 days, CellTiter-Glo. It counts as cell-based, HIV-1.

CC50 and inhibition data for 22 compounds are collected here from US9540343B2 (Gilead Sciences, Inc., priority 2011, dated 2017).

Molecules are shown by their SMILES. A value given as a limit tells only on which side of the number the result lay.

As to `NC(=O)c1cc(-c2cccnc2[C@H](Cc2cccc(F)c2)NC(=O)CN2CC(=O)Nc3ccccc32)ccc1F` [Example 264, (S)-2-fluoro-5-(2-(2-(3-fluorophenyl)-1-(2-(3-oxo-3,4-dihydroquinoxalin-1(2H)-yl)acetamido)ethyl)pyridin-3-yl)benzamide], the CC50 at 5 days in the data set “in vitro” is more than 53200 nM. For the same compound, the inhibition at 2 µM in the data set with HIV-IIIb was determined as 24%.
`NC(=O)c1cc(-c2cccnc2[C@H](Cc2cc(F)cc(F)c2)NC(=O)Cn2nc(C(F)(F)F)c3c2CC(O)C3)ccc1F` (some centres unmarked) [Example 265] yielded a CC50 at 5 days in the data set “in vitro” of more than 53200 nM. Besides, in the data set on HIV-IIIb, the inhibition at 2 µM turned out to be 74%.
With `NC(=O)c1cccc(-c2cccnc2[C@H](Cc2cc(F)cc(F)c2)NC(=O)Cn2ccc3cnc(Cl)nc32)c1` [Example 266C, (S)-3-(2-(1-(2-(2-chloro-7H-pyrrolo[2,3-d]pyrimidin-7-yl)acetamido)-2-(3,5-difluorophenyl)ethyl)pyridin-3-yl)benzamide], the CC50 at 5 days in “in vitro” was found to be 51900 nM. The inhibition at 2 µM with HIV-IIIb was determined as 0%.
Regarding `NC(=O)c1cc(-c2cccnc2[C@H](Cc2cc(F)cc(F)c2)NC(=O)CC2C(=O)Nc3ccc(F)cc32)ccc1F` (stereo partly drawn) [Example 267, 5-(2-((1S)-2-(3,5-difluorophenyl)-1-(2-(5-fluoro-2-oxoindolin-3-yl)acetamido)ethyl)pyridin-3-yl)-2-fluorobenzamide], the CC50 at 5 days in “in vitro” is more than 52900 nM. Moreover, the inhibition at 2 µM with HIV-IIIb amounted to 5%.
In the data set “in vitro”, `O=C(Cn1nc(C(F)F)c2c1C(F)(F)C1CC21)N[C@@H](Cc1cc(F)cc(F)c1)c1ncccc1-c1ccc(OC2CC2)cc1` (stereo partly drawn) [Example 268, N—((S)-1-(3-(4-cyclopropoxyphenyl)pyridin-2-yl)-2-(3,5-difluorophenyl)ethyl)-2-(3-(difluoromethyl)-5,5-difluoro-3b,4,4a,5-tetrahydro-1H-cyclopropa[3,4]cyclopenta[1,2-c]pyrazol-1-yl)acetamide] had a CC50 at 5 days of 27700 nM. Moreover, the inhibition at 2 µM with HIV-IIIb came to 27%.
Turning to `NC(=O)c1cc(-c2cccnc2[C@H](Cc2cc(F)cc(F)c2)NC(=O)CN2CC(=O)Nc3ccccc32)ccc1F` [Example 269, (S)-5-(2-(2-(3,5-difluorophenyl)-1-(2-(3-oxo-3,4-dihydroquinoxalin-1(2H)-yl)acetamido)ethyl)pyridin-3-yl)-2-fluorobenzamide], the CC50 at 5 days in “in vitro” was more than 53200 nM. In addition, the inhibition at 2 µM in the data set with HIV-IIIb turned out to be 8%.
Compound `NC(=O)c1cc(-c2cccnc2[C@H](Cc2cc(F)cc(F)c2)NC(=O)Cn2nc(C(F)(F)F)c3c2CCNC3=O)ccc1F` [Example 270C, (S)-5-(2-(2-(3,5-difluorophenyl)-1-(2-(4-oxo-3-(trifluoromethyl)-4,5,6,7-tetrahydro-1H-pyrazolo[4,3-c]pyridin-1-yl)acetamido)ethyl)pyridin-3-yl)-2-fluorobenzamide] returned a half-maximal cytotoxic concentration (CC50) at 5 days in the data set “in vitro” of more than 53200 nM. The inhibition at 2 µM in the data set with HIV-IIIb came out at 1%.
In “in vitro”, `NC(=O)c1cc(-c2cccnc2[C@H](Cc2cc(F)cc(F)c2)NC(=O)Cn2nc(C(F)(F)F)c3cc(F)ccc32)ccc1F` [Example 271B, (S)-5-(2-(2-(3,5-difluorophenyl)-1-(2-(5-fluoro-3-(trifluoromethyl)-1H-indazol-1-yl)acetamido)ethyl)pyridin-3-yl)-2-fluorobenzamide] showed a 50% cytotoxic concentration (CC50) at 5 days of 11400 nM. The inhibition at 2 µM with HIV-IIIb came to 15%.
For `CC1CCCc2c1c(C(F)(F)F)nn2CC(=O)N[C@@H](Cc1cc(F)cc(F)c1)c1ncccc1-c1ccc(F)c(C(N)=O)c1` (stereo partly drawn) [Example 272F, 5-(2-((1S)-2-(3,5-difluorophenyl)-1-(2-(4-methyl-3-(trifluoromethyl)-4,5,6,7-tetrahydro-1H-indazol-1-yl)acetamido)ethyl)pyridin-3-yl)-2-fluorobenzamide] the same measures were 14300 nM and 92%.
For `NC(=O)c1cc(-c2cccnc2[C@H](Cc2cc(F)cc(F)c2)NC(=O)Cn2nc(C(F)(F)F)c3c2C(=O)CCC3)ccc1F` [Example 273, (S)-5-(2-(2-(3,5-difluorophenyl)-1-(2-(7-oxo-3-(trifluoromethyl)-4,5,6,7-tetrahydro-1H-indazol-1-yl)acetamido)ethyl)pyridin-3-yl)-2-fluorobenzamide], the midpoint of cytotoxicity in “in vitro”, the CC50 at 5 days, lay at 29600 nM. In the data set on HIV-IIIb, the inhibition at 2 µM was determined as 10%.
`CC(C)(C)OC(=O)N1CCc2c(c(C(F)(F)F)nn2CC(=O)N[C@@H](Cc2cc(F)cc(F)c2)c2ncccc2-c2ccc(F)c(C(N)=O)c2)C1` [Example 274, (S)-tert-butyl 1-(2-(1-(3-(3-carbamoyl-4-fluorophenyl)pyridin-2-yl)-2-(3,5-difluorophenyl)ethylamino)-2-oxoethyl)-3-(trifluoromethyl)-6,7-dihydro-1H-pyrazolo[4,3-c]pyridine-5(4H)-carboxylate] had a CC50 at 5 days in “in vitro” of 11000 nM. In addition, the inhibition at 2 µM with HIV-IIIb was determined as 0%.
For `Cc1c(Br)c(C(F)(F)F)nn1CC(=O)N[C@@H](Cc1cc(F)cc(F)c1)c1ncccc1-c1ccc(F)c(C(N)=O)c1` [Example 275, (S)-5-(2-(1-(2-(4-bromo-5-methyl-3-(trifluoromethyl)-1H-pyrazol-1-yl)acetamido)-2-(3,5-difluorophenyl)ethyl)pyridin-3-yl)-2-fluorobenzamide], it took 16900 nM to reach half-maximal cytotoxicity in “in vitro” (CC50 at 5 days). Besides, the inhibition at 2 µM in the data set on HIV-IIIb was 53%.
Take `NC(=O)c1cc(-c2cccnc2[C@H](Cc2cc(F)cc(F)c2)NC(=O)Cn2cc(C3CC3)c(C(F)(F)F)n2)ccc1F` [Example 276, (S)-5-(2-(1-(2-(4-cyclopropyl-3-(trifluoromethyl)-1H-pyrazol-1-yl)acetamido)-2-(3,5-difluorophenyl)ethyl)pyridin-3-yl)-2-fluorobenzamide]: it took 16900 nM to reach half-maximal cytotoxicity in “in vitro” (CC50 at 5 days). Besides, in the data set with HIV-IIIb, the inhibition at 2 µM turned out to be 29%.
`NC(=O)c1cc(-c2cccnc2[C@H](Cc2cc(F)cc(F)c2)NC(=O)Cn2nc(C(F)(F)F)c3c2CCCC32CC2)ccc1F` [Example 277B, (S)-5-(2-(2-(3,5-difluorophenyl)-1-(2-(3′-(trifluoromethyl)-6′,7′-dihydrospiro[cyclopropane-1,4′-indazole]-1′(5′H)-yl)acetamido)ethyl)pyridin-3-yl)-2-fluorobenzamide]: the CC50 at 5 days in “in vitro” amounted to 19300 nM. Moreover, the inhibition at 2 µM in the data set on HIV-IIIb came to 96%.
In the data set “in vitro”, `Cc1cc2ncn(CC(=O)N[C@@H](Cc3cc(F)cc(F)c3)c3ncccc3-c3cccc(C(N)=O)c3)c2cc1C` [Example 278, (S)-3-(2-(2-(3,5-difluorophenyl)-1-(2-(5,6-dimethyl-1H-benzo[d]imidazol-1-yl)acetamido)ethyl)pyridin-3-yl)benzamide] came in with a half-maximal cytotoxic concentration (CC50) at 5 days of 8530 nM. Moreover, in the data set with HIV-IIIb, the inhibition at 2 µM was found to be 121%.
In the case of `Cc1cc2ncn(CC(=O)N[C@H](Cc3cc(F)cc(F)c3)c3ncncc3-c3ccc(Cl)cc3)c2cc1C` [Example 279G, (R)—N-(1-(5-(4-chlorophenyl)pyrimidin-4-yl)-2-(3,5-difluorophenyl)ethyl)-2-(5,6-dimethyl-1H-benzo[d]imidazol-1-yl)acetamide], the CC50 at 5 days in the data set “in vitro” is 9300 nM. Besides, in the data set on HIV-IIIb, the inhibition at 2 µM turned out to be 82%.
As for `CCc1c(C#CC(C)(C)C)c(C(F)(F)F)nn1CC(=O)N[C@@H](Cc1cc(F)cc(F)c1)c1ncccc1-c1ccc(F)c(C(N)=O)c1` [Example 280, (S)-5-(2-(2-(3,5-difluorophenyl)-1-(2-(4-(3,3-dimethylbut-1-ynyl)-5-ethyl-3-(trifluoromethyl)-1H-pyrazol-1-yl)acetamido)ethyl)pyridin-3-yl)-2-fluorobenzamide], the CC50 at 5 days in “in vitro” worked out at 4180 nM. Besides, the inhibition at 2 µM in the data set with HIV-IIIb was 0%.
As for `NC(=O)c1cc(-c2cccnc2[C@H](Cc2cc(F)cc(F)c2)NC(=O)Cn2nc(C(F)(F)F)c3c2C(=O)CC3)ccc1F` [Example 281C, (S)-5-(2-(2-(3,5-difluorophenyl)-1-(2-(6-oxo-3-(trifluoromethyl)-5,6-dihydrocyclopenta[c]pyrazol-1(4H)-yl)acetamido)ethyl)pyridin-3-yl)-2-fluorobenzamide], in “in vitro”, the CC50 at 5 days came to 28300 nM. Moreover, the inhibition at 2 µM in the data set on HIV-IIIb worked out at 5%.
The compound `NC(=O)c1cc(-c2cccnc2[C@H](Cc2cc(F)cc(F)c2)NC(=O)COc2cc[nH]c(=O)c2)ccc1F` [Example 282, (S)-5-(2-(2-(3,5-difluorophenyl)-1-(2-(2-oxo-1,2-dihydropyridin-4-yloxy)acetamido)ethyl)pyridin-3-yl)-2-fluorobenzamide] showed a half-maximal cytotoxic concentration (CC50) at 5 days in the data set “in vitro” of more than 53200 nM. Besides, the inhibition at 2 µM in the data set with HIV-IIIb is 0%.
In “in vitro”, `NC(=O)c1cc(-c2cccnc2[C@H](Cc2cc(F)cc(F)c2)NC(=O)Cn2nc(C(F)(F)F)c3c2C(F)(F)CC3)ccc1F` [Example 283C, (S)-5-(2-(1-(2-(6,6-difluoro-3-(trifluoromethyl)-5,6-dihydrocyclopenta[c]pyrazol-1(4H)-yl)acetamido)-2-(3,5-difluorophenyl)ethyl)pyridin-3-yl)-2-fluorobenzamide] displayed a CC50 at 5 days of 24400 nM. Moreover, in the data set on HIV-IIIb, the inhibition at 2 µM came out at 65%.
Compound `NC(=O)c1cc(-c2cccnc2[C@H](Cc2cc(F)cc(F)c2)NC(=O)Cn2nc(C(F)F)c3c2C(F)(F)CCC3=O)ccc1F` [Example 285G, (S)-5-(2-(1-(2-(3-(difluoromethyl)-7,7-difluoro-4-oxo-4,5,6,7-tetrahydro-1H-indazol-1-yl)acetamido)-2-(3,5-difluorophenyl)ethyl)pyridin-3-yl)-2-fluorobenzamide] showed a CC50 at 5 days in the data set “in vitro” of 48500 nM. In addition, in the data set with HIV-IIIb, the inhibition at 2 µM amounted to 58%.
Consider `O=C(Cn1cnc2c1CCCC2)N[C@@H](Cc1cc(F)cc(F)c1)c1ncccc1Br` [Example 286, (S)—N-(1-(3-bromopyridin-2-yl)-2-(3,5-difluorophenyl)ethyl)-2-(4,5,6,7-tetrahydro-1H-benzo[d]imidazol-1-yl)acetamide], for which, in “in vitro”, the midpoint of cytotoxicity, the CC50 at 5 days, lay at 25200 nM. For the same compound, the inhibition at 2 µM in the data set with HIV-IIIb was 0%.

Usually CC50 stands for the concentration that lowers cell viability or growth by half. The low end stands for harm at low concentration, the high end for better tolerance by the cells. One may read the inhibition as the relative decrease from the control value, in per cent.
